In US12458688B2, “Epitopes” (Scancell Limited, priority 2018, dated 2025):
Where two headings read alike, the source gives them in different places. Where no end group is shown, it is not given here. [ ]: non-standard residue; d: D form. hCit = NC(=O)NCCCC[C@H](N)C(=O)O

T1: HLA-DP4 (Homo sapiens, UniProt P04440+P20036)
T1 sequence (P20036 29-260): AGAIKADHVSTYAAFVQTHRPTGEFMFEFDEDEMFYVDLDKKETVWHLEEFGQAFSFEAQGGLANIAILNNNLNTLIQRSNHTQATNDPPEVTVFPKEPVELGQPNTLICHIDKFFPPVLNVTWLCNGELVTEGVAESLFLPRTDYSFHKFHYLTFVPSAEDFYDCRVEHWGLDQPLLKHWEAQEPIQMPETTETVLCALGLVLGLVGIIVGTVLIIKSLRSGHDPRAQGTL
T1 sequence (P04440 30-258): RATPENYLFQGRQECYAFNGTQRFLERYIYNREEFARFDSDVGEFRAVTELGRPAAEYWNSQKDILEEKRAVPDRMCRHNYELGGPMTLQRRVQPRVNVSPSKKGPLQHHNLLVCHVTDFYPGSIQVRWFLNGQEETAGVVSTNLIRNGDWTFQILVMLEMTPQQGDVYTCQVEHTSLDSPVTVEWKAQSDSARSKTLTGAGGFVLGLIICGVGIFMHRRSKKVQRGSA

B1: Aldolase A 289-307 Hcit (peptide)
peptide: [hCit]CPLL[hCit]PWALTFSYGRALQ

What was measured:
HLA-HHDII/DR1 mice = test: Ex vivo IFNγ ELISpot after peptide immunisation, HHDII/DR1 mice; assay type: in vivo, mouse; details: for IFNγ ELISpot response: 3 immunisations with CpG/MPLA, day 21
Experimental: (§1) C57BL/6 mice (Charles River, UK), HLA-DR4 mice (Model #4149, Taconic, USA), HLA-A2/DR1 (HHDII/DR1, Pasteur Institute), HLA-A2.1+/+HLA-DP4+/+hCD4+/+ (HLA-HHDII/DP4) transgenic mice (EM: 02221, European Mouse Mutant Archive) described in patent WO2013/017545 A1 (EMMA repository, France) were used, aged between 8 and 12 weeks. Peptides were dissolved in PBS to 1 mg/ml and then emulsified (a series of dilutions) with CpG ODN 1826 and MPLA 6 μg/mouse of each (Invivogen, UK). Peptides (25 μg/mouse) were injected subcutaneously at the base of the tail. Mice were immunised at days 1, 7 and 14 for peptide immunisation. Spleens were removed for analysis at day 21 unless stated otherwise.
(§2) ELISpot assays were performed using murine IFNγ, IL-17 and IL-10 capture and detection reagents according to the manufacturer's instructions (Mabtech, Sweden). In brief, anti-IFNγ, IL-17 and IL-10 specific antibodies were coated onto wells of 96-well Immobilin-P plate. Synthetic peptides (at various concentrations) and 5×10^5 per well splenocytes were added to wells of the plate in quadruplicate Tumour target cells were added where relevant at 5×10^4/well in triplicate and plates incubated for 40 hrs at 37° C. After incubation, captured IFNγ, IL-10 and IL-17 were detected by biotinylated anti-IFNγ, IL-10 and IL-17 antibodies and developed with a streptavidin alkaline phosphatase and chromogenic substrate. Lipopolysaccharide (LPS; 5 μg/ml) was used as a positive control. For MHC blocking studies, anti-CD4 blocking antibody (GK1.5) or anti-CD4 blocking antibody (RPA-T4) for HHDII/DP4 mice which express human CD4 and anti-CD8 blocking antibody (2.43) from Bioxcell were used at 20 μg/ml. Spots were analysed and counted using an automated plate reader (Cellular Technologies Ltd).
Screening was performed to identify potential homocitrullinated vimentin epitopes in mice. Mice were immunised with pools of homocitrullinated peptides. […] Each pool was administered as three immunisations containing 20 μg of each peptide and CpG/MPLA as an adjuvant on day 1, 8 and 15. On day 21 the mice were culled and the immune responses to each peptide within the immunising pool were assessed by ex vivo ELISpot. Given that different mouse strains have different MHC repertoires a number of strains were used for screening. Peptide responses were assessed in transgenic strains expressing human DR4 or HHDII/DR1 in a C57BL/6 background (see methods). […]
The five selected homocitrullinated Cyk8 peptides were also screened in HHDII/DR1 transgenic mice. […] Response to Cyk8 112Hcit peptide in the HHDII/DR1 mice was lost in the presence of CD8 blocking antibody but less effect of the CD4 blocking antibody was seen (FIG. 12b). […] Responses to homocitrullinated Cyk8 peptides show both CD4 and CD8 mediated responses.

HLA-DP4 = biological target: T1, HLA-DP4; test: DP4 competition assay with biotinylated Hep B peptide; details: inhibition of biotinylated Hep B binding to HLA-DP4; 5 fold excess test peptide, equal amount for unlabelled Hep B
Experimental: 2×T175 gave 2.5×10^7 B16 HHDII/DP4 (B16F1 β2M H2Ab1 dKO A35 HHDII/DP4 H7/2E9/F9 p14) cells. This was enough for 5 preps using the following protocol with Mem-PER™ Plus Membrane Protein Extraction Kit (thermo-scientific cat #89842).
5×10^6 cells were resuspended in the growth media by scraping the cells off the surface of the plate with a cell scraper and then centrifuged at 300 g for 5 mins. The cell pellet was washed with 3 ml of Cell Wash Solution and centrifuged at 300 g for 5 mins. The supernatant was removed and discarded. The cells were resuspended in 1.5 ml of Cell Wash Solution and transfer to a 2 ml centrifuge tube and centrifuged at 300 g for 5 mins. The supernatant was discarded. 0.75 ml of permeabilization buffer was added to the cell pellet and vortexed briefly to obtain a homogeneous cell suspension and incubated for 10 mins at 4° C. with constant mixing. The permeabilized cells were centrifuge for 15 mins at 16,000g before carefully removing the supernatant containing cytosolic proteins and transfering to a new tube. 0.5 ml of solubilization buffer was added to the pellet and resuspend prior to incubating at 4° C. for 30 minutes with constant mixing prior to centrifugation at 16,000g for 15 mins at 4° C. The supernatant containing solubilized membrane and membrane-associated proteins was transfered to a new tube. Aliquots were frozen at −80° C. for future use. 12.5 μl Halt™ Protease and Phosphatase Inhibitor Cocktail, EDTA-free (100X) thermo-scientific (Catalog number 78445) was added prior to freezing.
High binding plates were coated with streptavidin (Sigma S4762 at 1 mg/ml) 1/500 in PBS and incubated overnight at 4° C. The plates were blocked with 1% BSA in PBS for 4 hrs at room temp and washed 3×PBS/0.5% Tweenx. 450 μl of cell prep lysate (B16F1 B16 HHDII/DP4 H7/2E9/F9) was mixed with 50 μg test peptide (see below) or 10 μg of unlabelled Hep B peptide for 30 mins. 10 μg biotinylated Hep B peptide was added & incubated for 4 hrs at 37° C.:
Lysate/peptide mix was added to the plates at 100 μl/well and incubated for 4 hrs at room temperature. Plates were washed 3× with PBS/0.5% Tween. 100 μl per well of Leinco anti-Human HLA-DP4 clone B7/21 #H260 1 mg/ml at 1/500 dilution in 1% BSA/PBS was added and incubated for 1 hr at room temperature prior to washing 3× PBS/0.5% Tween. Goat anti-mouse lgG3-HRP at 0.5 mg/ml 1/500 100 μl per well (Invitrogen #M32607) diluted in 1% BSA/PBS) was added for 1 hr at room temperature prior to washing and adding 150 μl of TMB substrate to each well. The reaction was stopped with 50 μl of 2N H2SO4 and plates read plate at 450 nm.
To ensure that the biotinylation of Hep B had not interfered with its binding, HLA-DP4 was incubated with equal amounts of biotinylated and unlabelled Hep B peptide. Unlabelled peptide competed equally reducing binding by 47% (FIG. 53b).
The biotinylated HepB peptide was then incubated with a 5 fold excess of the unlabelled homocitrulline peptides. All peptides inhibited the binding of biotinylated Hep B to HLA-DP4 but to varying levels (FIG. 53c-e).

HLA-HHDII/DP4 mice = test: Ex vivo IFNγ ELISpot after peptide immunisation, HHDII/DP4 mice; assay type: in vivo, mouse; details: for IFNγ ELISpot response: 3 immunisations with CpG/MPLA, day 21
Experimental: as §1, §2
Screening was performed to identify potential homocitrullinated ALDOA epitopes in transgenic HHDII/DP4 and HHDII/DR1 mice. Mice were immunised with pools of human homocitrullinated peptides. […] Each pool was administered as three immunisations containing 20 μg of each peptide and CpG/MPLA as an adjuvant. After 21 days the mice were culled and the immune responses to each peptide within the immunising pool were assessed by ex vivo ELISpot in HHDII/DP4 (FIG. 4b) and HHDII/DR1 mice (FIG. 4d). […] Our predictions therefore identified 3/5 peptides which could induce a T cell response. […] Of the responding peptides ALDOA 74-93 Hcit and 140-157 Hcit peptides are homologous in human and mice therefore these two peptides were selected for further investigation. Minimal IL-10 (FIG. 6b) or IL-17 (FIG. 6c) responses were seen to Aldolase peptides in HHDII/DP4 mice.
Using this combination of predictions, 5 CyK8 peptides containing homocitrulline were synthesised (Table 4). Screening was performed to identify potential homocitrullinated Cyk8 epitopes in transgenic HHDII/DP4. Mice were immunised with pools of human homocitrullinated peptides. […] Each pool was administered as three immunisations containing 20 μg of each peptide and CpG/MPLA as an adjuvant. After 21 days the mice were culled and the immune responses to each peptide within the immunising pool were assessed by ex vivo ELISpot in HHDII/DP4 (FIG. 10a). […] The responses to CyK8 101-120 Hcit, 112-131 Hcit, 182-201 Hcit, 371-388 Hcit and 381-399 Hcit immunisation were characterised for cross reactivity to the wt peptide sequence. […] Thus a key characteristic of immunogenic peptides is they express homocitrulline. All of these peptides (100%) were immunogenic. Thus a high predicted HLA-DP4 binding affinity (<30), the presence of homocitrulline residues in the core region, the peptide being amphipathic in nature with a predominantely spiral conformational structure upon 3D modelling, and the existence of homology between the mouse and human sequences defines immunogenicity. When this model was applied retrospectively to include the vimentin and ALDOA peptides 8/9 (88%) were correctly predicted. […]

HLA-DP4 (human) = test: DP4 competition ELISA; competitor biotinylated Hep B peptide; 5 fold excess of unlabelled peptide
[1] = splenocytes after 7 days culture

Row | Molecule | IFNγ ELISpot response (HLA-HHDII/DP4 mice) | % inhibition (HLA-DP4 (human)) [%] | IFNγ response in presence of CD4 blocking antibody (HLA-HHDII/DP4 mice; [1]) | also measured
1 | LEQQNKMLETKWSLLQQQKT [Cyk8 112 wt, reference compound] | – | – | – | IFNγ ELISpot response (HLA-HHDII/DR1 mice): no specific response
2 | KDGADFAKWRCVLKIGEH [Aldolase A 140-157 WT, reference compound] | – | – | – | % inhibition (HLA-DP4): 29%
3 | Hcit-MLET-Hcit-WSL [Cyk8 117-125Hcit] | generation of responses | – | – | IFNγ response in presence of CD4 blocking antibody (HLA-HHDII/DP4 mice): not in the presence of CD4 blocking antibody; IFNγ response in presence of CD8 blocking antibody (HLA-HHDII/DP4 mice): blocked; IFNγ response in presence of CD8 blocking antibody (HLA-HHDII/DR1 mice): lost; IFNγ ELISpot response (HLA-HHDII/DR1 mice): generation of responses
4 | Aldolase A 140-157 WT (peptide) | – | 29 | – | –
5 | RSERLA-Hcit-YNQLLRIEEELGS [Alpha enolase 400-419 Hcit] | stimulation of IFNγ responses | – | lost | –
6 | EELNMDLFRSTM-Hcit-PVQ-Hcit-VL [BiP 328-346 Hcit] | stimulation of IFNγ responses | – | loss of response | cross reactivity of Hcit response to wt peptide (HLA-HHDII/DP4 mice): significantly higher
7 | EDFSETLTRA-Hcit-FEELNMDLFR [BiP 316-336 Hcit] | stimulation of IFNγ responses | – | loss of response | –
8 | Cytokeratin 8 182-202 Hcit (peptide) | – | 61 | – | –
9 | GFFLLTRILTIPQ [HepB, reference compound] | – | – | – | % inhibition (HLA-DP4): 47%
10 | DVAASEFFRSG-Hcit-YDLDF-Hcit-SP [Alpha enolase 245-264 Hcit] | stimulation of IFNγ responses | – | lost | –
11 | PLRPQNYLFGCEL-Hcit-AD-Hcit- [NPM 11-27 Hcit] | stimulation of IFNγ responses | – | blocking of the response | IFNγ response in presence of CD8 blocking antibody (HLA-HHDII/DP4 mice; [1]): not with the CD8 blocking antibody
12 | Aldolase A 74-93 WT (peptide) | – | 27 | – | –
13 | Hcit-MALDIEIATYR-Hcit-LLEGEE [Vimentin 390-408 Hcit] | stimulation of IFNγ responses | – | loss of response | –
14 | IGGVILFHETLYQKADDGRP [Aldolase A 74-93 WT, reference compound] | – | – | – | % inhibition (HLA-DP4): 27%
15 | VLAAVY-Hcit-AL [Aldolase 209-217] | stimulation of IFNγ responses | – | – | IFNγ response in presence of CD8 blocking antibody (HLA-HHDII/DP4 mice; [1]): lost; cross reactivity of Hcit response to wt peptide (HLA-HHDII/DR1 mice): lower reactivity; IFNγ ELISpot response (HLA-HHDII/DR1 mice): strong responses
16 | Aldolase A 238-256 Hcit (peptide) | – | 73 | – | –
17 | GGSLP-Hcit-VEA-Hcit-FINYV-Hcit-NCFR [NPM 258-277 Hcit] | stimulation of IFNγ responses | – | blocking of the response | cross reactivity of Hcit response to wt peptide (HLA-HHDII/DP4 mice): significantly higher; IFNγ response in presence of CD8 blocking antibody (HLA-HHDII/DP4 mice; [1]): not with the CD8 blocking antibody
18 | YVTE-Hcit-VLAAVY-Hcit-ALSD [Aldolase 204-219 Hcit] | stimulation of IFNγ responses | – | partial loss of response | cross reactivity of Hcit response to wt peptide (HLA-HHDII/DP4 mice): significantly higher; IFNγ response in presence of CD8 blocking antibody (HLA-HHDII/DP4 mice; [1]): partial loss of response; cross reactivity of Hcit response to wt peptide (HLA-HHDII/DR1 mice): lower reactivity; IFNγ ELISpot response (HLA-HHDII/DR1 mice): strong responses
19 | Cytokeratin 8 371-388 Hcit (peptide) | – | 72 | – | –
20 | Vimentin 116-135 WT (peptide) | – | 48 | – | –
21 | B1 | – | 45 | – | –
